Data published in ChEMBL document CHEMBL1157232, “Wortmannilactones A-D, 22-membered triene macrolides from Talaromyces wortmannii” (J Nat Prod, 2006).
≈ marks a conversion by molar mass, not a printed value.

Legend:
[1] = test system: B16-F10; assay: Cytotoxicity against mouse B16-F10 cells; assay type: functional, cell-based
[2] = test system: Human alphaherpesvirus 1; assay: Antiviral activity against Herpes simplex virus 1; assay type: functional, organism-based
[3] = test system: Human alphaherpesvirus 2; assay: Antiviral activity against Herpes simplex virus 2; assay type: functional, organism-based
[4] = Cytotoxicity against human HCT5 cells; assay type: functional, cell-based
[5] = Cytotoxicity against human HCT115 cells; assay type: functional, cell-based
[6] = test system: A549; assay: Cytotoxicity against human A549 cells; assay type: functional, cell-based
[7] = test system: MDA-MB-231; assay: Cytotoxicity against human MDA-MB-231 cells; assay type: functional, cell-based
[8] = test system: K562; assay: Cytotoxicity against human K562 cells; assay type: functional, cell-based

| SMILES | IC50 [1] [µg/mL] | IC50 [2] [µg/mL] | IC50 [3] [µg/mL] | IC50 [4] [µM] | IC50 [5] [µM] | IC50 [6] [µM] | IC50 [7] [µM] | IC50 [8] [µM] |
| --- | --- | --- | --- | --- | --- | --- | --- | --- |
| C[C@@H]1CCC/C=C/C=C/[C@H](O)C[C@@H](O)C/C=C\C=C\[C@@H](O)C/C=C/C=C\C(=O)O1 [MACROLACTIN A] | 3.5 (≈ 8.69 µM) | 5 (≈ 12.4 µM) | 8.3 (≈ 20.6 µM) |  |  |  |  |  |
| CC(O)CC1C/C=C/C=C/C=C/C(O)CC(O)CC(O)C/C=C/C=C/C=C/C(=O)O1 (stereo not drawn) [WORTMANNILACTONE A] |  |  |  | 28.7 | 35 | 76.5 | 108 | 65.7 |
| COC1/C=C/C=C/C=C/CC(CC(C)O)OC(=O)/C=C/C=C/C=C/CC(O)CC(O)C1 (stereo not drawn) [WORTMANNILACTONE B] |  |  |  | 32.4 | 41.7 | 104 | 95.6 | 116 |
| CC(O)CC1CC(O)/C=C/C=C/C=C/CC(O)CC(O)C/C=C/C=C/C=C/C(=O)O1 (stereo not drawn) [WORTMANNILACTONE C] |  |  |  | 56.3 | 52.4 | 118 | 120 | 130 |
| COC1/C=C/C=C/C=C/CC(O)CC(O)C/C=C/C=C/C=C/C(=O)OC(CC(C)O)C1 (stereo not drawn) [WORTMANNILACTONE D] |  |  |  | 46.3 | 44.7 | 116 | 111 | 123 |
